Tested on: WT Mtb Erdman strain
Assay: Microplate Alamar Blue Assay (MABA), Mtb growth inhibition
Assay type: cell-based, Mycobacterium tuberculosis
Settings: Mycobacterium tuberculosis, ERDMAN, 168 h, Middlebrook 7H9 media, 7 days at 37° C. in 5% CO2

| Compound | IC50 [nM] |
| --- | --- |
| CCc1nc(N[C@@H]2C[C@H]2c2ccccc2)c2cc(C)sc2n1 (racemic) [Example 1, 2-ethyl-6-methyl-N-((rac-1S,2R)-2-phenylcyclopropyl) thieno[2,3-d]pyrimidin-4-amine] | 240 |
| CCc1nc(NC[C@@H]2C[C@H]2c2ccccc2)c2cc(C)sc2n1 (racemic) [Example 84, 2-ethyl-6-methyl-N-(((1S,2S)-2-phenylcyclopropyl)methyl)thieno[2,3-d]pyrimidin-4-amine] | 7700 |
| CCc1nc(N[C@@H]2C[C@H]2c2ccccc2)c2ccsc2n1 (racemic) [Example 175, 2-ethyl-N-((rac-1R,2S)-2-phenylcyclopropyl) thieno[2,3-d]pyrimidin-4-amine] | < 240 |
| CCc1nc(N[C@H]2C[C@@H]2c2ccccc2)c2cc(C)sc2n1 [Example 2, 2-ethyl-6-methyl-N-((1S,2R)-2-phenylcyclopropyl) thieno[2,3-d]pyrimidin-4-amine] | 3100 |
| CCc1nc(NCCCc2ccc(C(F)(F)F)cc2)c2cc(C)sc2n1 [Example 3, 2-ethyl-6-methyl-N-(3-(4-(trifluoromethyl)phenyl)propyl)thieno [2,3-d]pyrimidin-4-amine] | 280 |
| CCc1nc(N[C@@H]2C[C@H]2c2ccc(F)c(F)c2)c2cc(C)sc2n1 [Example 4, N-((1R,2S)-2-(3,4-difluorophenyl)cyclopropyl)-2-ethyl-6-methylthieno[2,3-d]pyrimidin-4-amine] | 300 |
| CCc1nc(NC2CC(c3ccccc3)C2)c2cc(C)sc2n1 (centres unmarked) [Example 5, 2-ethyl-6-methyl-N-(3-phenylcyclobutyl) thieno[2,3-d]pyrimidin-4-amine] | 2100 |
| CCc1nc(N[C@@H]2C[C@H]2c2ccccc2)c2cc(C)sc2n1 [Example 6, 2-ethyl-6-methyl-N-((1R,2S)-2-phenylcyclopropyl) thieno[2,3-d]pyrimidin-4-amine] | 440 |
| CCc1nc(NCCc2ccc(Cl)cc2)c2cc(C)sc2n1 [Example 7, N-(4-chlorophenethyl)-2-ethyl-6-methylthieno[2,3-d]pyrimidin-4-amine] | 1100 |
| CCc1nc(NCCc2cccc(Cl)c2)c2cc(C)sc2n1 [Example 8, N-(3-chlorophenethyl)-2-ethyl-6-methylthieno[2,3-d]pyrimidin-4-amine] | 690 |
| CCc1nc(NCCc2ccccc2Cl)c2cc(C)sc2n1 [Example 9, N-(2-chlorophenethyl)-2-ethyl-6-methylthieno[2,3-d]pyrimidin-4-amine] | 2000 |
| CCc1nc(NCCc2ccc3ccccc3c2)c2cc(C)sc2n1 [Example 10, 2-ethyl-6-methyl-N-(2-(naphthalen-2-yl)ethyl)thieno[2,3-d]pyrimidin-4-amine] | 450 |
| CCc1nc(NCCOc2ccccc2)c2cc(C)sc2n1 [Example 11, 2-ethyl-6-methyl-N-(2-phenoxyethyl)thieno [2,3-d]pyrimidin-4-amine] | 2800 |
| CCc1nc(NCCc2ccncc2)c2cc(C)sc2n1 [Example 12, 2-ethyl-6-methyl-N-(2-(pyridin-4-yl)ethyl)thieno[2,3-d]pyrimidin-4-amine] | > 10000 |
| CCc1nc(NCCc2cccnc2)c2cc(C)sc2n1 [Example 13, 2-ethyl-6-methyl-N-(2-(pyridin-3-yl)ethyl)thieno[2,3-d]pyrimidin-4-amine] | > 10000 |
| CCc1nc(NCCc2ccccn2)c2cc(C)sc2n1 [Example 14, 2-ethyl-6-methyl-N-(2-(pyridin-2-yl)ethyl)thieno[2,3-d]pyrimidin-4-amine] | > 10000 |
| CCc1nc(NCCc2ccc(OC)cc2)c2cc(C)sc2n1 [Example 15, 2-ethyl-N-(4-methoxyphenethyl)-6-methylthieno[2,3-d]pyrimidin-4-amine] | 2100 |
| CCc1nc(NCCc2ccc([N+](=O)[O-])cc2)c2cc(C)sc2n1 [Example 16, 2-ethyl-6-methyl-N-(4-nitrophenethyl)thieno [2,3-d]pyrimidin-4-amine] | 9000 |
| CCc1nc(N(C)CCCc2ccccc2)c2cc(C)sc2n1 [Example 17, 2-ethyl-N,6-dimethyl-N-(3-phenylpropyl)thieno [2,3-d]pyrimidin-4-amine] | 7600 |
| CCc1nc(NCCCc2ccc(OC)cc2)c2cc(C)sc2n1 [Example 18, 2-ethyl-N-(3-(4-methoxyphenyl)propyl)-6-methylthieno[2,3-d]pyrimidin-4-amine] | 60 |
| CCc1nc(NCCc2ccc(C(F)(F)F)cc2)c2cc(C)sc2n1 [Example 19, 2-ethyl-6-methyl-N-(4-(trifluoromethyl)phenethyl)thieno[2,3-d]pyrimidin-4-amine] | 2900 |
| CCc1nc(NCCc2cccc(C(F)(F)F)c2)c2cc(C)sc2n1 [Example 20, 2-ethyl-6-methyl-N-(3-(trifluoromethyl)phenethyl)thieno[2,3-d]pyrimidin-4-amine] | 4900 |

| Compound | IC50 [nM] |
| --- | --- |
| CCc1nc(NCCc2ccccc2C(F)(F)F)c2cc(C)sc2n1 [Example 21, 2-ethyl-6-methyl-N-(2-(trifluoromethyl)phenethyl)thieno[2,3-d]pyrimidin-4-amine] | > 10000 |
| CCc1nc(NCCCc2ccc(OC)c(OC)c2)c2cc(C)sc2n1 [Example 22, N-(3-(3,4-dimethoxyphenyl)propyl)-2-ethyl-6-methylthieno[2,3-d]pyrimidin-4-amine] | 770 |
| CCc1nc(NC(C)CCc2ccccc2)c2cc(C)sc2n1 (centres unmarked) [Example 23, 2-ethyl-6-methyl-N-(4-phenylbutan-2-yl)thieno[2,3-d]pyrimidin-4-amine] | 8300 |
| CCc1nc(NCCCc2ccco2)c2cc(C)sc2n1 [Example 24, 2-ethyl-N-(3-(furan-2-yl)propyl)-6-methylthieno[2,3-d]pyrimidin-4-amine] | 1000 |
| CCc1nc(NCCCCc2ccccc2)c2cc(C)sc2n1 [Example 25, 2-ethyl-6-methyl-N-(4-phenylbutyl)thieno [2,3-d]pyrimidin-4-amine] | 120 |
| CCc1nc(NCCc2ccc(-c3ccccc3)cc2)c2cc(C)sc2n1 [Example 26, N-(2-([1,1′-biphenyl]-4-yl)ethyl)-2-ethyl-6-methylthieno[2,3-d]pyrimidin-4-amine] | 1200 |
| CCc1nc(NCCCn2cccc2)c2cc(C)sc2n1 [Example 27, N-(3-(1H-pyrrol-1-yl)propyl)-2-ethyl-6-methylthieno[2,3-d]pyrimidin-4-amine] | 210 |
| Cc1cc2c(N[C@@H]3C[C@H]3c3ccc(F)c(F)c3)nc(C(F)(F)F)nc2s1 [Example 28, N-((1R,2S)-2-(3,4-difluorophenyl)cyclopropyl)-6-methyl-2-(trifluoromethyl) thieno [2,3-d]pyrimidin-4-amine] | 2100 |
| COc1ccc(CCCNc2nc(-c3ccccn3)nc3sccc23)cc1 [Example 29, N-(3-(4-methoxyphenyl)propyl)-2-(pyridin-2-yl)thieno[2,3-d]pyrimidin-4-amine] | 2300 |
| FC(F)(F)c1ccc(CCCNc2nc(-c3ccccn3)nc3sccc23)cc1 [Example 30, 2-(pyridin-2-yl)-N-(3-(4-(trifluoromethyl)phenyl)propyl)thieno[2,3-d]pyrimidin-4-amine] | 2200 |
| Fc1ccc([C@@H]2C[C@H]2Nc2nc(-c3ccccn3)nc3sccc23)cc1F [Example 31, N-((1R,2S)-2-(3,4-difluorophenyl)cyclopropyl)-2-(pyridin-2-yl)thieno[2,3-d]pyrimidin-4-amine] | 7100 |
| Fc1ccc([C@@H]2C[C@H]2Nc2nc(-c3ccccn3)nc3sc(Cl)cc23)cc1F [Example 32, 6-chloro-N-((1R,2S)-2-(3,4-difluorophenyl)cyclopropyl)-2-(pyridin-2-yl)thieno[2,3-d]pyrimidin-4-amine] | 3500 |
| Cc1cc2c(N[C@@H]3C[C@H]3c3ccc(F)c(F)c3)nc(-c3ccccn3)nc2s1 [Example 33, N-((1R,2S)-2-(3,4-difluorophenyl)cyclopropyl)-6-methyl-2-(pyridin-2-yl)thieno[2,3-d]pyrimidin-4-amine] | 4300 |
| CCc1nc(NCCCc2ccc(OC(F)(F)F)cc2)c2cc(C)sc2n1 [Example 34, 2-ethyl-6-methyl-N-(3-(4-(trifluoromethoxy)phenyl)propyl)thieno[2,3-d]pyrimidin-4-amine] | 270 |
| FC(F)(F)Oc1ccc(CCCNc2nc(-c3ccccn3)nc3sccc23)cc1 [Example 35, 2-(pyridin-2-yl)-N-(3-(4-(trifluoromethoxy)phenyl)propyl)thieno[2,3-d]pyrimidin-4-amine] | 2200 |
| Cc1cc2c(NCCCc3ccc(OC(F)(F)F)cc3)nc(C(F)(F)F)nc2s1 [Example 36, 6-methyl-N-(3-(4-(trifluoromethoxy)phenyl)propyl)-2-(trifluoromethyl)thieno [2,3-d]pyrimidin-4-amine] | 2100 |
| CCc1nc(NCCc2cccc(OC)c2)c2cc(C)sc2n1 [Example 37, 2-ethyl-N-(3-methoxyphenethyl)-6-methylthieno[2,3-d]pyrimidin-4-amine] | > 7900 |
| Cc1cc2c(N[C@@H]3C[C@H]3c3ccc(F)c(F)c3)nc(-c3ccncn3)nc2s1 [Example 38, N-((1R,2S)-2-(3,4-difluorophenyl)cyclopropyl)-6-methyl-2-(pyrimidin-4-yl)thieno[2,3-d]pyrimidin-4-amine] | 2000 |
| CCc1nc(NCCc2cccc([N+](=O)[O-])c2)c2cc(C)sc2n1 [Example 39, 2-ethyl-6-methyl-N-(3-nitrophenethyl)thieno [2,3-d]pyrimidin-4-amine] | > 8800 |
| CCc1nc(NCCOc2ccc(OC)cc2)c2cc(C)sc2n1 [Example 40, 2-ethyl-N-(2-(4-methoxyphenoxy)ethyl)-6-methylthieno[2,3-d]pyrimidin-4-amine] | 3600 |
| Cc1cc2c(N[C@@H]3C[C@H]3c3ccc(F)c(F)c3)nc(-c3ncccn3)nc2s1 [Example 41, N-((1R,2S)-2-(3,4-difluorophenyl)cyclopropyl)-6-methyl-2-(pyrimidin-2-yl)thieno[2,3-d]pyrimidin-4-amine] | > 10000 |
| Cc1cc2c(N[C@@H]3C[C@H]3c3ccc(F)c(F)c3)nc(-c3nccs3)nc2s1 [Example 42, N-((1R,2S)-2-(3,4-difluorophenyl)cyclopropyl)-6-methyl-2-(thiazol-2-yl)thieno[2,3-d]pyrimidin-4-amine] | 8100 |

Source: patent publication US20240279236A1, “COMPOUNDS AND METHODS OF TREATING TUBERCULOSIS” (Fimbrion Therapeutics, Inc., priority 2021, published 2024)
